US7507708B2, “Antitumoral compounds” (Pharma Mar, S.A.U., priority 2003, dated 2009)
pIC50: −log10 of the molar value.

What was measured:
[1] = test system: HELA; assay: In vitro cytotoxic activity, SRB assay; details: for CC50: read-out: LC50, 48 hours exposure
Method: The finality of these assays is to interrupt the growth of a “in vitro” tumor cell culture by means a continued exhibition of the cells to the sample to be testing.
Most of the cell lines are obtained from American Type Culture Collection (ATCC) derived from different human cancer types.
Cells are maintained in RPMI 1640 10% FBS, supplemented with 0.1 g/l penicillin and 0.1 g/l streptomycin sulfate and then incubated at 37° C., 5% CO2 and 98% humidity. For the experiments, cells were harvested from subconfluent cultures using trypsin and resuspended in fresh medium before plating.
Cells are seeded in 96 well microtiter plates, at 5×10^3 cells per well in aliquots of 195 μl medium, and they are allowed to attach to the plate surface by growing in drug free medium for 18 hours. Afterward, samples are added in aliquots of 5 μl in a ranging from 10 to 10^−8 μg/ml, dissolved in DMSO/EtOH/PBS (0.5:0.5:99). After 48 hours exposure, the antitumor effect are measured by the SRB methodology: cells are fixed by adding 50 μl of cold 50% (wt/vol) trichloroacetic acid (TCA) and incubating for 60 minutes at 4° C. Plates are washed with deionized water and dried. One hundred μl of SRB solution (0.4% wt/vol in 1% acetic acid) is added to each microtiter well and incubated for 10 minutes at room temperature. Unbound SRB is removed by washing with 1% acetic acid. Plates are air dried and bound stain is solubilized with Tris buffer. Optical densities are read on a automated spectrophotometric plate reader at a single wavelength of 490 nm.
The values for mean +/− SD of data from triplicate wells are calculated. Some parameters for cellular responses can be calculated: GI=growth inhibition, TGI=total growth inhibition (cytostatic effect) and LC=cell killing (cytotoxic effect).

[2] = test system: NRK-52E, normal rat kidney cell; assay: In vitro toxicity to normal cells, MTS assay; format: cell-based; details: 24 h
Method: (§3) In order to assess the cytotoxicity of the drugs to normal cells, we used 96 well plates plated at a density of 5000 cells per well with normal cell lines maintained as per the directions of the ATCC: AML-12, normal mouse liver cells and NRK-52E, normal rat kidney cell. The cells in each plate were permitted to settle overnight before adding the test drug. To each well (100 μl medium) 10 μl of drug in media was added at varying concentrations (1×10^−10-0.01 mg/ml final concentration) and further incubated overnight at 37° C. with 5% CO2. All experiments were repeated at least 3 times and were assayed in duplicate. After 24 h the MTS assay (CellTiter 96 aqueous) was performed according to the manufacturer's (Promega) directions (for all cell types). Cell viability (mitochondrial activity) is determined via enzymatic conversion of the formazan substrate.

[3] = test system: AML-12, normal mouse liver cells; assay: In vitro toxicity to normal cells, MTS assay; details: read-out: ALM Liver IC50, 24 h
Method: as §3

[4] = test system: LOVO; assay: In vitro cytotoxic activity, SRB assay; format: cell-based, human; details: 48 hours exposure
Source text: (§1) Plates are washed with deionized water and dried.

[5] = test system: PANC-1; assay: In vitro cytotoxic activity, SRB assay; format: cell-based, human; details: PANC-1, 48 hours exposure
Source text: as §1

[6] = test system: MEL-28; assay: In vitro cytotoxic activity, SRB assay; format: cell-based, human; details: MEL-28, 48 hours exposure
Source text: as §1

[7] = test system: IGROV-ET; assay: In vitro cytotoxic activity, SRB assay; format: cell-based, human; details: 48 hours exposure
Source text: as §1

[8] = test system: SK-BR-3; assay: In vitro cytotoxic activity, SRB assay; format: cell-based, human; details: SK-BR-3, 48 hours exposure; for CC50: read-out: LC50 (the source's name)
Source text: as §1

[9] = test system: DU-145; assay: In vitro cytotoxic activity, SRB assay; format: cell-based, human; details: DU-145, 48 hours exposure
Source text: as §1

[10] = test system: K-562; assay: In vitro cytotoxic activity, SRB assay; format: cell-based, human; details: K-562, 48 hours exposure
Source text: as §1

[11] = test system: HT-29; assay: In vitro cytotoxic activity, SRB assay; format: cell-based, human; details: HT-29, 48 hours exposure; for CC50: read-out: LC50 (the source's name)
Source text: as §1

[12] = test system: A-549; assay: In vitro cytotoxic activity, SRB assay; format: cell-based, human; details: A-549, 48 hours exposure; for CC50: read-out: LC50 (the source's name)
Source text: as §1

[13] = test system: LN-caP; assay: In vitro cytotoxic activity, SRB assay; format: cell-based, human; details: 48 hours exposure
Source text: as §1

[14] = test system: LOVO-DOX; assay: In vitro cytotoxic activity, SRB assay; format: cell-based, human; details: 48 hours exposure
Source text: as §1

[15] = test system: HELA-APL; assay: In vitro cytotoxic activity, SRB assay; format: cell-based, human; details: 48 hours exposure; for CC50: read-out: LC50 (the source's name)
Source text: as §1

[16] = test system: IGROV; assay: In vitro cytotoxic activity, SRB assay; format: cell-based, human; details: 48 hours exposure
Source text: as §1

[17] = test system: female mice; details: cited from earlier work
[18] = In vivo MTD in CD-1 mice; details: mouse, unit inferred; for MTD at 5 days: 5 daily doses; for MTD: intravenous, single bolus
Method: (§2) The Maximum Tolerated Dose is determined in CD-1 and athymic mice (both genders) for each drug after single bolus administration and after 5 dayly doses. The results are given in table IV, there is no significant difference between the compounds 5 methylhexanoic KF and (4S)-methylhexanoic KF.

[19] = In vivo MTD in athymic mice; details: mouse; for MTD at 5 days: 5 daily doses; for MTD: intravenous, single bolus
Method: as §2

[20] = female CD-1 mice, read-out: Female CD-1 mice MTD 5DD
[21] = female CD-1 mice, read-out: Female CD-1 mice MTD Bolus
[22] = male CD-1 mice, read-out: Male CD-1 mice MTD Bolus
[23] = male CD-1 mice, read-out: Male CD-1 mice MTD 5DD
[24] = female athymic mice, no unit printed in table (325 μg/kg/day), read-out: Female athymic mice MTD 5DD
[25] = female athymic mice, unit inferred, read-out: Female athymic mice MTD Bolus
[26] = male athymic mice, unit inferred, read-out: Male athymic mice MTD Bolus
[27] = male athymic mice, unit inferred, read-out: Male athymic mice MTD 5DD

Structure (SMILES): C/C=C1\NC(=O)[C@H](Cc2ccccc2)NC(=O)[C@@H](C(C)C)NC(=O)[C@@H]([C@@H](C)CC)NC(=O)[C@H](NC(=O)[C@H](NC(=O)[C@H](CCCN)NC(=O)[C@H]2CCCN2C(=O)[C@H](NC(=O)[C@@H](NC(=O)[C@@H](NC(=O)[C@H](NC(=O)CCCC(C)C)C(C)C)[C@@H](C)O)C(C)C)C(C)C)[C@@H](C)CC)[C@@H](C)OC(=O)[C@H](C(C)C)NC1=O [5-methylhexanoic KF, reference compound]
- GI50 ([1]; 48 hours exposure): 839 nM
- CC50 [1]: 4260 nM
- pIC50 [2]: 5.57
- pIC50 [3]: 5.47
- GI50 [4]: 120 nM
- LC50 (50% lethal concentration) [4]: 428 nM
- GI50 [5]: 1380 nM
- LC50 [5]: 6070 nM
- GI50 [6]: 690 nM
- LC50 [6]: 3550 nM
- GI50 [7]: 447 nM
- LC50 [7]: 3090 nM
- GI50 [8]: 398 nM
- CC50 [8]: 6770 nM
- GI50 [9]: 751 nM
- LC50 [9]: 3600 nM
- GI50 [10]: 1540 nM
- LC50 (50% lethal concentration) [10]: 5660 nM
- GI50 [11]: 141 nM
- CC50 [11]: 562 nM
- GI50 [12]: 866 nM
- CC50 [12]: 3780 nM
- GI50 [13]: 961 nM
- LC50 (50% lethal concentration) [13]: 5570 nM
- GI50 [14]: 162 nM
- LC50 [14]: 620 nM
- GI50 [15]: 1060 nM
- CC50 [15]: 4430 nM
- GI50 [16]: 420 nM
- LC50 [16]: 3800 nM
- tolerability of repeated administration ([17]; 280 μg/kg, once daily times five schedule): without any apparent evidence of acute toxicity
- maximum tolerated dose (MTD) ([17]; female mice, single bolus iv injection): 0.28 mg/kg
- MTD at 5 days [18, 20]: 0.175 to 0.35 mg/kg
- MTD [18, 21]: 0.2 mg/kg
- MTD [18, 22]: 0.3 mg/kg
- MTD at 5 days [18, 23]: 0.175 to 0.35 mg/kg
- MTD at 5 days [19, 24]: 0.325 mg/kg
- MTD [19, 25]: 0.325 mg/kg
- MTD [19, 26]: 0.35 mg/kg
- MTD at 5 days [19, 27]: 0.35 mg/kg

Structure (SMILES): C/C=C1\NC(=O)[C@H](Cc2ccccc2)NC(=O)[C@@H](C(C)C)NC(=O)[C@@H]([C@@H](C)CC)NC(=O)[C@H](NC(=O)[C@H](NC(=O)[C@H](CCCN)NC(=O)[C@H]2CCCN2C(=O)[C@H](NC(=O)[C@@H](NC(=O)[C@@H](NC(=O)[C@H](NC(=O)CC[C@H](C)CC)C(C)C)[C@@H](C)O)C(C)C)C(C)C)[C@@H](C)CC)[C@@H](C)OC(=O)[C@H](C(C)C)NC1=O [(4R)-methylhexanoic KF]
- GI50 ([1]; 48 hours exposure): 1050 nM
- TGI ([1]; 48 hours exposure): 1.93E−06 Molar
- CC50 [1]: 3550 nM
- GI50 [4]: 248 nM
- LC50 (50% lethal concentration) [4]: 2280 nM
- TGI [4]: 7.78E−07 Molar
- GI50 [5]: 4700 nM
- LC50 [5]: 4240 nM
- TGI [5]: 4.24E−06 Molar
- GI50 [6]: 1140 nM
- LC50 [6]: 3800 nM
- TGI [6]: 2.09E−06 Molar
- GI50 [7]: 805 nM
- LC50 [7]: 3260 nM
- TGI [7]: 1.62E−06 Molar
- GI50 [8]: 1250 nM
- TGI [8]: 2.20E−06 Molar
- CC50 [8]: 3860 nM
- GI50 [9]: 1200 nM
- LC50 [9]: 3820 nM
- TGI [9]: 2.14E−06 Molar
- GI50 [10]: 3730 nM
- LC50 (50% lethal concentration) [10]: 6770 nM
- TGI [10]: 6.77E−06 Molar
- GI50 [11]: 738 nM
- TGI [11]: 1.54E−06 Molar
- CC50 [11]: 3220 nM
- GI50 [12]: 1200 nM
- TGI [12]: 2.26E−06 Molar
- CC50 [12]: 4240 nM
- GI50 [13]: 1500 nM
- LC50 (50% lethal concentration) [13]: 4040 nM
- TGI [13]: 2.46E−06 Molar
- GI50 [14]: 288 nM
- LC50 [14]: 2190 nM
- TGI [14]: 7.71E−07 Molar
- GI50 [15]: 1560 nM
- TGI [15]: 3.47E−06 Molar
- CC50 [15]: 6770 nM
- GI50 [16]: 941 nM
- LC50 [16]: 3500 nM
- TGI [16]: 1.81E−06 Molar

Structure (SMILES): C/C=C1\NC(=O)[C@H](Cc2ccccc2)NC(=O)[C@@H](C(C)C)NC(=O)[C@@H]([C@@H](C)CC)NC(=O)[C@H](NC(=O)[C@H](NC(=O)[C@H](CCCN)NC(=O)[C@H]2CCCN2C(=O)[C@H](NC(=O)[C@@H](NC(=O)[C@@H](NC(=O)[C@H](NC(=O)CC[C@@H](C)CC)C(C)C)[C@@H](C)O)C(C)C)C(C)C)[C@@H](C)CC)[C@@H](C)OC(=O)[C@H](C(C)C)NC1=O [(4S)-methylhexanoic KF, 4(S)-MeHex-D-Val-L-Thr-L-VaI-D-Val-D-Pro-L-Orn-D-allo-Ile-cyclo(D-allo-Thr-D-allo-Ile-D-Val-L-Phe-Z-Dhb-L-Val)]
- GI50 ([1]; 48 hours exposure): 1180 nM
- CC50 [1]: 4970 nM
- pIC50 [2]: 5.57
- pIC50 [3]: 5.27
- GI50 [4]: 163 nM
- LC50 (50% lethal concentration) [4]: 580 nM
- GI50 [5]: 6770 nM
- LC50 [5]: 6770 nM
- GI50 [6]: 1430 nM
- LC50 [6]: 4720 nM
- GI50 [7]: 225 nM
- LC50 [7]: 2820 nM
- GI50 [8]: 181 nM
- CC50 [8]: 606 nM
- GI50 [9]: 237 nM
- LC50 [9]: 2490 nM
- GI50 [10]: 2520 nM
- LC50 (50% lethal concentration) [10]: 6770 nM
- GI50 [11]: 301 nM
- CC50 [11]: 2710 nM
- GI50 [12]: 267 nM
- CC50 [12]: 3090 nM
- GI50 [13]: 1120 nM
- LC50 (50% lethal concentration) [13]: 5930 nM
- GI50 [14]: 157 nM
- LC50 [14]: 677 nM
- GI50 [15]: 1040 nM
- CC50 [15]: 4390 nM
- GI50 [16]: 292 nM
- LC50 [16]: 2620 nM
- MTD at 5 days [18, 20]: 0.175 to 0.35 mg/kg
- MTD [18, 21]: 0.2 mg/kg
- MTD [18, 22]: 0.3 mg/kg
- MTD at 5 days [18, 23]: 0.175 to 0.35 mg/kg
- MTD at 5 days [19, 24]: 0.325 mg/kg
- MTD [19, 25]: 0.325 mg/kg
- MTD [19, 26]: 0.35 mg/kg
- MTD at 5 days [19, 27]: 0.35 mg/kg
